Experimental data as given in patent publication US12637471B2, “Heterocyclic compounds, compositions, methods of preparation and uses thereof” (Organon R&D Finland Ltd, priority 2021, dated 2026).

Tests used:
Format in all cases: biochemical
[1] = biological target: T1, Recombinant human aldo-keto reductase family 1 member C2 (AKR1C2) protein (Homo sapiens, UniProt P52895); test: Inhibition of the aldo-keto reductase family 1 member C2, 3H-dihydrotestosterone conversion; settings: inhibitor at 10 μM
T1 construct: made in house; host or cells: Sf-9 insect cells (baculovirus)
T1 sequence (P52895 1-323): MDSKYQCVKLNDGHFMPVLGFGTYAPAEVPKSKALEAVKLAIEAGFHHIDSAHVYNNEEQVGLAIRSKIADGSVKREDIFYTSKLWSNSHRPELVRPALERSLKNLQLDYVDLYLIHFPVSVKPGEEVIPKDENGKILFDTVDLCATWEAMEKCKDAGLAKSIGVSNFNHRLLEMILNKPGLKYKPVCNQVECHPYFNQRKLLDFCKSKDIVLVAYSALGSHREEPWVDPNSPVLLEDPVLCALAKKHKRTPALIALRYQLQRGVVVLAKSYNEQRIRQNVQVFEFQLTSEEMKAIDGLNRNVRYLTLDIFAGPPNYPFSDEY
How it was run: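 Single-point screen at 10 μM inhibitor, 1% DMSO: [3H]DHT (6.25 nM) reduction to 3α-diol by baculovirus-made AKR1C2 (13.6 nM), pH 7.4 phosphate buffer, 1 mM NADPH, 37 °C for 45 min. Radio-UPLC quantified product versus substrate to give percent inhibition.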

[2] = biological target: T2, Recombinant human AKR1C3 (17β-HSD5) protein (Homo sapiens, UniProt P42330); test: Inhibition of AKR1C3 (17β-hydroxysteroid dehydrogenase type 5) enzyme, fluorescence assay; settings: inhibitor at 500 nM
T2 construct: made in house; host or cells: E. coli
T2 sequence (P42330 1-323): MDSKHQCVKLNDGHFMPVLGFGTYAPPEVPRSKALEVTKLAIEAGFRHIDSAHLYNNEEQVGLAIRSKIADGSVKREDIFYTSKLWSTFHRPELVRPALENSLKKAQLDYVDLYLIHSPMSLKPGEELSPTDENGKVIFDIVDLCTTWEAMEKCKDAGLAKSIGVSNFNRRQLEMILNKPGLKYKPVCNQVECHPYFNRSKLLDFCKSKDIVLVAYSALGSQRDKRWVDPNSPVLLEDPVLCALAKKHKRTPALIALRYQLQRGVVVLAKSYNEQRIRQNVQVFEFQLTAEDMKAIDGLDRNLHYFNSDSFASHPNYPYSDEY
How it was run: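 Percent inhibition at 500 nM compound, derived from substrate conversion; product alcohol measured by fluorescence (ex 420, em 510 nm) against a 1 μM–10 nM standard curve. Reaction: 27 nM recombinant AKR1C3, 1 μM ketone substrate, 1 mM NADPH, phosphate/EDTA buffer pH 7.4, 1% DMSO, RT for 60–120 min.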

[3] = biological target: T3, 17β-Hydroxysteroid Dehydrogenase Type 2 Enzyme (17β-HSD2) (Homo sapiens, UniProt P37059); test: Inhibition of the 17β-hydroxysteroid dehydrogenase type 2 enzyme, 3H-testosterone conversion; settings: inhibitor at 10 μM
T3 construct: made in house; host or cells: Sf-9 insect cells (baculovirus)
T3 sequence (P37059 1-387): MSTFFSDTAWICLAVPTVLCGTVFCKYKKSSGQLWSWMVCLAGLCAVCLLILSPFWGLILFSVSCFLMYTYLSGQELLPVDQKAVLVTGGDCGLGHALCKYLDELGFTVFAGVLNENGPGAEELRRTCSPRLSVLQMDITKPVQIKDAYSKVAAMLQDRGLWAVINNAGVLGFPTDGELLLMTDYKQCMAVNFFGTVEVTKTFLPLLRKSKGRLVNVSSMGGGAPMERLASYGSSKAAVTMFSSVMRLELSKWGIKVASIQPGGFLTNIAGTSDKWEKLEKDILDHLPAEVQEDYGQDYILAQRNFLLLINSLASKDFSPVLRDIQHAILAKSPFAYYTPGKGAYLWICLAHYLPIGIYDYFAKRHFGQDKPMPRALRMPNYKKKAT
How it was run: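 Single-point screen at 10 μM inhibitor, 1% DMSO: Sf-9-expressed human enzyme (105 nM), NAD 1 mM, ³H-labelled testosterone 56.25 nM, pH 8.5 phosphate/EDTA buffer, 30 min, room temperature. After TCA quench, substrate and product radioactivity quantified by UPLC with scintillation detection; inhibition percent from conversion.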

inhibition at 10 µM [1] [%] | inhibition at 0.5 µM [2] [%] | inhibition at 10 µM [3] [%] | SMILES
12 | 95 | 21 | N#CC(=C1CCN(C(=O)N2C[C@@H]3CC[C@@H]2C3)CC1)c1ccc(F)c(F)c1 [Compound 34, 2-(1-((1R,4R)-2-azabicyclo[2.2.1]heptane-2-carbonyl)piperidin-4-ylidene)-2-(3,4-difluorophenyl)acetonitrile]
4 | 98 | 28 | CCN(CC)C(=O)N1CCC(=C(C#N)c2ccc(OC(F)(F)F)cc2)CC1 [Compound 170, 4-(cyano(4-(trifluoromethoxy)phenyl)methylene)-N,N-diethylpiperidine-1-carboxamide]
17 | 97 | 4 | N#CC(=C1CCN(C(=O)N2CCc3nocc3C2)CC1)c1ccc(F)c(F)c1 [Compound 32, 2-(3,4-difluorophenyl)-2-(1-(4,5,6,7-tetrahydroisoxazolo[4,3-c]pyridine-5-carbonyl)piperidin-4-ylidene)acetonitrile]
2 | 99 | 8 | N#CC(=C1CCN(C(=O)N2CCn3ncnc3C2)CC1)c1cccc(Cl)c1 [Compound 157, 2-(3-chlorophenyl)-2-(1-(5,6,7,8-tetrahydro-[1,2,4]triazolo[1,5-a]pyrazine-7-carbonyl)piperidin-4-ylidene)acetonitrile]
8 | 96 | 12 | N#CC(=C1CCN(C(=O)N2CCc3sccc3C2)CC1)c1ccc(Cl)cn1 [Compound 66, 2-(5-chloropyridin-2-yl)-2-(1-(4,5,6,7-tetrahydrothieno[3,2-c]pyridine-5-carbonyl)piperidin-4-ylidene)acetonitrile]
9 | 96 | 9 | N#CC(=C1CCN(C(=O)N2CCC(CCO)CC2)CC1)c1ccc(F)cc1 [Compound 97, 2-(4-fluorophenyl)-2-(1-(4-(2-hydroxyethyl)piperidine-1-carbonyl)piperidin-4-ylidene)acetonitrile]
0 | 100 | 8 | N#CC(=C1CCN(C(=O)N2CCC(O)CC2)CC1)c1cccc2[nH]ncc12 [Compound 48, 2-(1-(4-hydroxypiperidine-1-carbonyl)piperidin-4-ylidene)-2-(1H-indazol-4-yl)acetonitrile]
21 | 99 | 19 | N#CC(=C1CCN(C(=O)N2CCn3nncc3C2)CC1)c1cccc(Cl)c1 [Compound 155, 2-(3-chlorophenyl)-2-(1-(4,5,6,7-tetrahydro-[1,2,3]triazolo[1,5-a]pyrazine-5-carbonyl)piperidin-4-ylidene)acetonitrile]
6 | 96 | 30 | C[C@@H]1CCCCN1C(=O)N1CCC(=C(C#N)c2ccc(F)cc2)CC1 [Compound 110, (R)-2-(4-fluorophenyl)-2-(1-(2-methylpiperidine-1-carbonyl)piperidin-4-ylidene)acetonitrile]
30 | 96 | 17 | N#CC(=C1CCN(C(=O)N2CCc3sccc3C2)CC1)c1ccc(F)cc1F [Compound 112, 2-(2,4-difluorophenyl)-2-(1-(4,5,6,7-tetrahydrothieno[3,2-c]pyridine-5-carbonyl)piperidin-4-ylidene)acetonitrile]
5 | 93 | 2 | COCC1CCN(C(=O)N2CCC(=C(C#N)c3ccc(F)cc3)CC2)CC1 [Compound 106, 2-(4-fluorophenyl)-2-(1-(4-(methoxymethyl)piperidine-1-carbonyl)piperidin-4-ylidene)acetonitrile]
13 | 99 | 26 | N#CC(=C1CCN(C(=O)N2CCC(CO)CC2)CC1)c1cccc(Cl)c1 [Compound 88, 2-(3-chlorophenyl)-2-(1-(4-(hydroxymethyl)piperidine-1-carbonyl)piperidin-4-ylidene)acetonitrile]
2 | 97 | 9 | CCOC1CCN(C(=O)N2CCC(=C(C#N)c3ccc(F)cc3)CC2)CC1 [Compound 20, 2-(1-(4-ethoxypiperidine-1-carbonyl)piperidin-4-ylidene)-2-(4-fluorophenyl)acetonitrile]
23 | 99 | 23 | COC1CCN(C(=O)N2CCC(=C(C#N)c3ccc(F)cc3F)CC2)CC1 [Compound 91, 2-(2,4-difluorophenyl)-2-(1-(4-methoxypiperidine-1-carbonyl)piperidin-4-ylidene)acetonitrile]
6 | 99 | 20 | N#CC(=C1CCN(C(=O)N2CCC(CO)CC2)CC1)c1ccc(C(F)(F)F)cc1 [Compound 76, 2-(1-(4-(hydroxymethyl)piperidine-1-carbonyl)piperidin-4-ylidene)-2-(4-(trifluoromethyl)phenyl)acetonitrile]
34 | 99 | 18 | N#CC(=C1CCN(C(=O)N2CCc3nocc3C2)CC1)c1ccc(Cl)s1 [Compound 160, 2-(5-chlorothiophen-2-yl)-2-(1-(4,5,6,7-tetrahydroisoxazolo[4,3-c]pyridine-5-carbonyl)piperidin-4-ylidene)acetonitrile]
22 | 101 | -4 | N#CC(=C1CCN(C(=O)N2CCc3nocc3C2)CC1)c1cc(F)cc(F)c1 [Compound 158, 2-(3,5-difluorophenyl)-2-(1-(4,5,6,7-tetrahydroisoxazolo[4,3-c]pyridine-5-carbonyl)piperidin-4-ylidene)acetonitrile]
-2 | 95 | 13 | CCN(CC)C(=O)N1CCC(=C(C#N)c2ccc(F)cn2)CC1 [Compound 172, 4-(cyano(5-fluoropyridin-2-yl)methylene)-N,N-diethylpiperidine-1-carboxamide]
-3 | 86 | 3 | N#CC(=C1CCN(C(=O)N2CCC(O)CC2)CC1)c1cccc2cn[nH]c12 [Compound 56, 2-(1-(4-hydroxypiperidine-1-carbonyl)piperidin-4-ylidene)-2-(1H-indazol-7-yl)acetonitrile]
5 | 99 | 2 | N#CC(=C1CCN(C(=O)N2CCOCC2)CC1)c1ccc(F)cc1 [Compound 1, 2-(4-fluorophenyl)-2-(1-(morpholine-4-carbonyl)piperidin-4-ylidene)acetonitrile]
28 | 98 | 27 | N#CC(=C1CCN(C(=O)N2CCc3[nH]ncc3C2)CC1)c1ccc(F)cc1 [Compound 25, 2-(4-fluorophenyl)-2-(1-(4,5,6,7-tetrahydro-1H-pyrazolo[4,3-c]pyridine-5-carbonyl)piperidin-4-ylidene)acetonitrile]
